Data reported in ChEMBL document CHEMBL6134844, “Development of Next-Generation Antimalarial Acridones with Radical Cure Potential” (J Med Chem, 2025).

Columns and labels:
[1] = tested on: Plasmodium falciparum; assay: Antiplasmodial activity against asexual blood-stage (ABS) MDR Plasmodium falciparum Dd2 infected in human erythrocytes assessed as reduction in fluorescence measured after 72 hrs by Malaria SYBR Green I-based Fluorescence (MSF) assay; type: functional, organism-based; conditions: Dd2, Erythrocyte
[2] = tested on: Plasmodium falciparum; assay: Antiplasmodial activity against asexual blood-stage (ABS) ATV-resistant clinical isolate Plasmodium falciparum Tm90-C2B infected in human erythrocytes assessed as reduction in fluorescence measured after 72 hrs by Malaria SYBR Green I-based Fluorescence (MSF) assay; type: functional, organism-based; conditions: Erythrocyte
[3] = tested on: Plasmodium falciparum; assay: Antiplasmodial activity against asexual blood-stage (ABS) CQ-sensitive Plasmodium falciparum D6 infected in human erythrocytes assessed as reduction in fluorescence measured after 72 hrs by Malaria SYBR Green I-based Fluorescence (MSF) assay; type: functional, organism-based; conditions: D6, Erythrocyte
[4] = tested on: Plasmodium cynomolgi; assay: (§1) Antiplasmodial activity against schizont Plasmodium cynomolgi B strain infected in Macaca mulatta hepatocytes incubated with sporozoite containing salivary gland homogenate obtained from dissected Anopheles dirus mosquitoes (infected with Plasmodium cynomolgi B strain) treatment started on day 4 post infection and continued daily for 4 days into fresh changed media until day 8 assessed as Liver stage (LS) activity by measuring prophylactic mode by immunofluorescent staining analysis; type: functional, organism-based; conditions: Hepatocyte
[5] = tested on: Hepatocyte; assay: Cytotoxicity against Macaca mulatta hepatocytes assessed as cell viability measured after 48 hrs by MTT assay; type: toxicity, cell-based; conditions: rhesus monkey, 48 h
[6] = as §1, with “Selectivity index, ratio of CC50 for Macaca mulatta hepatocytes to IC50 for antiplasmodial” for “Antiplasmodial”, “hypnozoite” for “schizont”, “radical cure” for “prophylactic”; type: toxicity, cell-based; conditions: rhesus monkey, read-out: Selectivity Index
[7] = tested on: Plasmodium cynomolgi; assay: as §1, with “hypnozoite” for “schizont”, “radical cure” for “prophylactic”; type: functional, organism-based; conditions: Hepatocyte
[8] = tested on: Plasmodium cynomolgi; assay: as §1, with “radical cure” for “prophylactic”; type: functional, organism-based; conditions: Hepatocyte
[9] = mouse, microsomes, 1 h
[10] = as §1, with “Selectivity index, ratio of CC50 for Macaca mulatta hepatocytes to IC50 for antiplasmodial” for “Antiplasmodial”, “hypnozoite” for “schizont”; type: toxicity, cell-based; conditions: rhesus monkey, read-out: Selectivity Index
[11] = tested on: HepG2; assay: Cytotoxicity against human HepG2 cells assessed as cell viability measured after 48 hrs by MTT assay; type: functional, cell-based; conditions: HepG2, 48 h
[12] = as §1, with “Selectivity index, ratio of CC50 for Macaca mulatta hepatocytes to IC50 for antiplasmodial” for “Antiplasmodial”; type: toxicity, cell-based; conditions: rhesus monkey, read-out: Selectivity Index
[13] = as §1, with “Selectivity index, ratio of CC50 for Macaca mulatta hepatocytes to IC50 for antiplasmodial” for “Antiplasmodial”, “radical cure” for “prophylactic”; type: toxicity, cell-based; conditions: rhesus monkey, read-out: Selectivity Index
[14] = tested on: Plasmodium cynomolgi; assay: as §1, with “hypnozoite” for “schizont”; type: functional, organism-based; conditions: Hepatocyte
[15] = human, microsomes, 1 h
[16] = Toxicity in CF1 mouse infected with asexual blood-stage (ABS) Plasmodium yoelii MRA-428 assessed as hyperactivity at 0.3 to 30 mg/kg, po treated 24 hrs post infection measured after 4 days; type: organism-based; conditions: in vivo, 96 h, dose 0.3-30 mg/kg, time 4 day
[17] = Toxicity in CF1 mouse infected with asexual blood-stage (ABS) Plasmodium yoelii MRA-428 assessed as lethargy at 0.3 to 30 mg/kg, po treated 24 hrs post infection measured after 4 days; type: organism-based; conditions: in vivo, 96 h, dose 0.3-30 mg/kg, time 4 day
[18] = Toxicity in CF1 mouse infected with asexual blood-stage (ABS) Plasmodium yoelii MRA-428 assessed as weight loss at 0.3 to 30 mg/kg, po treated 24 hrs post infection measured after 4 days; type: organism-based; conditions: in vivo, 96 h, dose 0.3-30 mg/kg, time 4 day
[19] = Toxicity in CF1 mouse infected with asexual blood-stage (ABS) Plasmodium yoelii MRA-428 assessed as ruffled hair at 0.3 to 30 mg/kg, po treated 24 hrs post infection measured after 4 days; type: organism-based; conditions: in vivo, 96 h, dose 0.3-30 mg/kg, time 4 day
[20] = Toxicity in CF1 mouse infected with asexual blood-stage (ABS) Plasmodium yoelii MRA-428 assessed as hunching at 0.3 to 30 mg/kg, po treated 24 hrs post infection measured after 4 days; type: organism-based; conditions: in vivo, 96 h, dose 0.3-30 mg/kg, time 4 day

SMILES	IC50 [1] [nM]	IC50 [2] [nM]	IC50 [3] [nM]	IC50 [4] [nM]	CC50 [5] [nM]	selectivity ratio at 96 h [6]	IC50 [7] [nM]	IC50 [8] [nM]	CLH [9] [µL/min/mg]	selectivity ratio at 96 h [10]	IC50 [11] [nM]	selectivity ratio at 96 h [12]	selectivity ratio at 96 h [13]	IC50 [14] [nM]	t1/2 [15] [h]	Activity [16]	Activity [17]	Activity [18]	Activity [19]	Activity [20]
O=c1c2ccc(OCc3cccc(C(F)(F)F)c3)cc2[nH]c2ccc(Cl)c(F)c12	0.0004	118	0.0003	80	> 20000	> 9.13	2190	1530	15.6	> 50	> 200000	> 250	> 13.1	400	> 1					
CN(C)CCOc1ccc2c(=O)c3c([nH]c2c1)CCCC3	> 2500	> 2500	> 2500	> 20000	> 20000		> 20000	> 20000	> 500					> 20000		Non-toxic	Non-toxic	Non-toxic	Non-toxic	Non-toxic
O=c1c2cccc(Oc3ccc(OC(F)(F)F)cc3)c2[nH]c2cc(Cl)cc(F)c12	188	> 2500	383	3330	> 20000		> 20000	> 20000	25.5	> 1.47	92900	> 6.01		13600	> 1					
CO[C@@H]1[C@@H](OC)[C@H](C)[C@@](O)(CC(=O)O)O[C@H]1[C@H](C)[C@H]1O[C@@]2(CC[C@@](C)([C@H]3CC[C@@](C)([C@@H]4O[C@@H]([C@H]5O[C@](C)(O)[C@H](C)C[C@@H]5C)C[C@@H]4O[C@@H]4C[C@H](OC)[C@@H](OC)[C@H](C)O4)O3)O2)C[C@H](O)[C@H]1C [MADURAMICIN ACID]				30	2360	78.7	30	40		236		78.7	59	10						
O=c1c2ccc(Oc3ccc(OC(F)(F)F)cc3)cc2[nH]c2ccc(Cl)c(F)c12	0.2	277	0.191	50	4580	1.11	4120	2110	< 3.125	11.4	> 200000	91.6	2.17	400	> 1					
O=c1c2ccc(Oc3ccc(OC(F)(F)F)cc3)cc2[nH]c2cc(Cl)c(F)cc12	11.1	1520	14.4	270	> 20000		> 20000	> 20000	177	> 15.5	> 200000	> 74.1		1290	> 1					
O=c1c2c(F)cc(Cl)cc2[nH]c2cccc(Oc3ccc(OC(F)(F)F)cc3)c12	188	> 2500	87.8	7370	> 20000		> 20000	16600	45.4		189000	> 2.71	> 1.2	> 20000	> 1					
O=c1c2ccc(Oc3ccccc3OC(F)(F)F)cc2[nH]c2cc(Cl)cc(F)c12	0.005	28.8	0.005	80	9210	2.02	4560	4210	72.3	6.72	> 200000	115	2.19	1370						
